Laboratory results from the NIST ThermoML archive (doi:10.1016/j.fluid.2014.12.023).
Where “and” joins values, the source holds several entries; their conditions need not be identical. Equal entries are not always repeated. ± gives the expanded uncertainty stated by the source.

Details: Liquid, Transpiration method

Fc1ccccc1I [1,2-fluoroiodobenzene]
Details	vapor or sublimation pressure
282.8 K	0.0397 ± 0.0028 kPa
285.7 K	0.0483 ± 0.0035 kPa and 0.0493 ± 0.0035 kPa
288.7 K	0.0638 ± 0.0046 kPa
289.5 K	0.0686 ± 0.0049 kPa
292.5 K	0.0843 ± 0.006 kPa
296.4 K	0.1111 ± 0.0079 kPa
298.4 K	0.1269 ± 0.0091 kPa
301.4 K	0.1633 ± 0.012 kPa
303.4 K	0.1819 ± 0.013 kPa
306.4 K	0.2238 ± 0.016 kPa
308.4 K	0.25 ± 0.018 kPa
311.3 K	0.2939 ± 0.021 kPa
313.4 K	0.3289 ± 0.024 kPa
316.4 K	0.4201 ± 0.03 kPa
317.5 K	0.4348 ± 0.031 kPa
318.4 K	0.4686 ± 0.033 kPa
321.4 K	0.5638 ± 0.04 kPa
323.5 K	0.6216 ± 0.044 kPa
326.5 K	0.7364 ± 0.052 kPa
327.5 K	0.7616 ± 0.054 kPa
328.6 K	0.8217 ± 0.058 kPa

Fc1cccc(I)c1 [1,3-fluoroiodobenzene]
Details	vapor or sublimation pressure
275.2 K	0.0326 ± 0.0023 kPa
280.4 K	0.0474 ± 0.0034 kPa
283.4 K	0.0571 ± 0.004 kPa
283.8 K	0.058 ± 0.0041 kPa
284.9 K	0.0625 ± 0.0045 kPa
286.8 K	0.0746 ± 0.0053 kPa
288.2 K	0.082 ± 0.0058 kPa
288.7 K	0.0861 ± 0.0061 kPa and 0.0802 ± 0.0058 kPa
290.7 K	0.0986 ± 0.007 kPa
292.6 K	0.1122 ± 0.0079 kPa
293.2 K	0.1154 ± 0.008 kPa
293.6 K	0.1137 ± 0.008 kPa
296.7 K	0.1436 ± 0.01 kPa
297.6 K	0.1513 ± 0.011 kPa and 0.1481 ± 0.011 kPa
300.6 K	0.184 ± 0.013 kPa
302.5 K	0.2085 ± 0.015 kPa
305.6 K	0.256 ± 0.018 kPa
307.5 K	0.2849 ± 0.02 kPa
307.6 K	0.2932 ± 0.021 kPa and 0.3026 ± 0.021 kPa
310.6 K	0.364 ± 0.026 kPa and 0.3464 ± 0.025 kPa
312.5 K	0.4094 ± 0.029 kPa and 0.3873 ± 0.027 kPa
315.6 K	0.4642 ± 0.033 kPa
315.7 K	0.4836 ± 0.034 kPa
317.6 K	0.516 ± 0.036 kPa
317.7 K	0.5427 ± 0.038 kPa
319.6 K	0.5968 ± 0.042 kPa

Fc1ccc(I)cc1 [1,4-fluoroiodobenzene]
Details	vapor or sublimation pressure
276.5 K	0.0329 ± 0.0024 kPa
279.7 K	0.04219 ± 0.003 kPa
283.9 K	0.05918 ± 0.0042 kPa and 0.0586 ± 0.0042 kPa
286.5 K	0.07144 ± 0.0051 kPa
289.4 K	0.08532 ± 0.0061 kPa and 0.08615 ± 0.0062 kPa
293.3 K	0.1163 ± 0.0083 kPa
298.1 K	0.1638 ± 0.012 kPa
303 K	0.2198 ± 0.016 kPa
308.1 K	0.3015 ± 0.021 kPa
312.9 K	0.4121 ± 0.029 kPa
317.9 K	0.547 ± 0.038 kPa

Fc1ccccc1Br [1-bromo-2-fluorobenzene]
Details	vapor or sublimation pressure [kPa]
278.5 K	0.1247 ± 0.0092
279.4 K	0.1385 ± 0.0098
280.6 K	0.1422 ± 0.01
282.3 K	0.1684 ± 0.012
282.5 K	0.1604 ± 0.011
283.4 K	0.1716 ± 0.012
284.5 K	0.1843 ± 0.013
285.5 K	0.2081 ± 0.015
288.7 K	0.262 ± 0.018
291.7 K	0.3115 ± 0.022
294.5 K	0.3837 ± 0.027
297.5 K	0.4636 ± 0.033
300.3 K	0.5578 ± 0.039
303.5 K	0.6675 ± 0.047
306.6 K	0.8 ± 0.057
309.5 K	0.944 ± 0.067
312.6 K	1.141 ± 0.081
315.4 K	1.338 ± 0.095
318.6 K	1.61 ± 0.11
321.4 K	1.858 ± 0.13
324.3 K	2.174 ± 0.15

Fc1cccc(Br)c1 [1-bromo-3-fluorobenzene]
Details	vapor or sublimation pressure [kPa]
280.8 K	0.2278 ± 0.017
283.4 K	0.2912 ± 0.02
283.7 K	0.2875 ± 0.02
284.7 K	0.3109 ± 0.022
286.6 K	0.3559 ± 0.025
287.7 K	0.3711 ± 0.026
288.7 K	0.403 ± 0.029
289.4 K	0.4245 ± 0.03
292.5 K	0.5168 ± 0.036
293.4 K	0.5476 ± 0.039
295.3 K	0.6202 ± 0.044
298.4 K	0.7441 ± 0.052
299.7 K	0.8106 ± 0.057
301.5 K	0.8784 ± 0.062
302.4 K	0.9483 ± 0.067
305.8 K	1.125 ± 0.079
308.5 K	1.312 ± 0.092
311.6 K	1.541 ± 0.11
314.6 K	1.819 ± 0.13
317.6 K	2.138 ± 0.15

Fc1ccc(Br)cc1 [1-bromo-4-fluorobenzene]
Details	vapor or sublimation pressure [kPa]
278.2 K	0.1662 ± 0.012
281.3 K	0.2043 ± 0.015
283.5 K	0.2384 ± 0.017
284.4 K	0.2446 ± 0.017
286.5 K	0.285 ± 0.02
287.3 K	0.2956 ± 0.021
289.4 K	0.3532 ± 0.025
290.2 K	0.3668 ± 0.026
292.4 K	0.4087 ± 0.029
295.4 K	0.5144 ± 0.036
296.1 K	0.5283 ± 0.037
298.3 K	0.6028 ± 0.043
300.1 K	0.6822 ± 0.048
301.4 K	0.7138 ± 0.05
304.4 K	0.8461 ± 0.06
307.6 K	0.9874 ± 0.07
310.5 K	1.204 ± 0.085
313.4 K	1.41 ± 0.1
316.4 K	1.673 ± 0.12

Fc1ccccc1Cl [1-chloro-2-fluorobenzene]
Details	vapor or sublimation pressure
277.5 K	0.3411 ± 0.024 kPa
280.6 K	0.4191 ± 0.03 kPa and 0.4312 ± 0.031 kPa
283.5 K	0.5098 ± 0.036 kPa
283.6 K	0.5041 ± 0.036 kPa
286.4 K	0.6241 ± 0.044 kPa
286.6 K	0.6176 ± 0.044 kPa
289.5 K	0.7705 ± 0.054 kPa
289.6 K	0.7749 ± 0.055 kPa
292.4 K	0.8974 ± 0.063 kPa
295.7 K	1.093 ± 0.077 kPa
298.5 K	1.268 ± 0.09 kPa
301.3 K	1.521 ± 0.11 kPa
304.1 K	1.795 ± 0.13 kPa
307.4 K	2.169 ± 0.15 kPa
310.1 K	2.497 ± 0.18 kPa
313.6 K	3.121 ± 0.22 kPa
316.3 K	3.551 ± 0.25 kPa
319.2 K	4.226 ± 0.3 kPa

Fc1cccc(Cl)c1 [1-chloro-3-fluorobenzene]
Details	vapor or sublimation pressure [kPa]
275.8 K	0.4412 ± 0.031
280.1 K	0.5829 ± 0.041
283.1 K	0.7061 ± 0.05
286 K	0.8315 ± 0.059
288.9 K	1.031 ± 0.073
292 K	1.237 ± 0.087
295.1 K	1.491 ± 0.11
298.1 K	1.767 ± 0.12
301 K	2.096 ± 0.15
304.1 K	2.469 ± 0.17
307.3 K	2.963 ± 0.21
310.3 K	3.568 ± 0.25
313.3 K	4.106 ± 0.29
316.5 K	4.927 ± 0.35
319.5 K	5.737 ± 0.4

Fc1ccc(Cl)cc1 [1-chloro-4-fluorobenzene]
Details	vapor or sublimation pressure [kPa]
277.6 K	0.6008 ± 0.043
280.6 K	0.7421 ± 0.053
283.2 K	0.8729 ± 0.062
286.2 K	1.057 ± 0.075
289.3 K	1.259 ± 0.089
292.4 K	1.527 ± 0.11
295.7 K	1.87 ± 0.13
296.9 K	1.982 ± 0.14
299.8 K	2.405 ± 0.17
302.7 K	2.858 ± 0.2
305.7 K	3.285 ± 0.23
308.4 K	3.855 ± 0.27
311.6 K	4.575 ± 0.32
314.3 K	5.275 ± 0.37
317.6 K	6.059 ± 0.43
320.4 K	7.146 ± 0.5
323.5 K	8.51 ± 0.6
